pIC50, pKd: −log10 of the molar value. Values joined by “and” are separate entries in the source; they are usually repeats but may differ in a detail not shown here. Equal values may be shown once.
What was measured:
[1] = biological target: T1, Cyclic GMP-AMP synthase (Mus musculus, UniProt Q8C6L5); assay: Inhibition of cGAS in dsDNA activated mouse RAW-Lucia ISG cells preincubated for 1 hr followed by cGAMP addition and measured after 24 hrs by luminescence based QUANTI-Luc assay
[2] = biological target: T2, Cyclic GMP-AMP synthase (Homo sapiens, UniProt Q8N884); assay: Inhibition of cGAS in dsDNA activated human THP1-Dual cells preincubated for 1 hr followed by cGAMP addition and measured after 24 hrs by luminescence based QUANTI-Luc assay
T2 sequence (Q8N884 whole entry): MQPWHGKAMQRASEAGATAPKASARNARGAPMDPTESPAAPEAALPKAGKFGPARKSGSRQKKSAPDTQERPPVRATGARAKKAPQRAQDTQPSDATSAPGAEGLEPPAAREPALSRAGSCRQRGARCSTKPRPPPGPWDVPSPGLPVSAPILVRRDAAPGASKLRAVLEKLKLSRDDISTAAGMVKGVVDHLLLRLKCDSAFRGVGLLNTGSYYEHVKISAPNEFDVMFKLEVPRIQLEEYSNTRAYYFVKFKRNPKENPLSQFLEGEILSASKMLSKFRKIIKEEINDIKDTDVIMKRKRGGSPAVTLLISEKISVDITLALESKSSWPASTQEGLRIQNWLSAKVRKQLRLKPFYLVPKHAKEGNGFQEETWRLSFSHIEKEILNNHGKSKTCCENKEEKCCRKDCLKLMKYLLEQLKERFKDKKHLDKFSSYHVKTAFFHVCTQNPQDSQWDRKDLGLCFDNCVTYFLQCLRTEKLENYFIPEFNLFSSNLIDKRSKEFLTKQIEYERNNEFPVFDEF

[3] = test system: THP1-Dual; assay: Cytotoxicity against human THP1-Dual cells incubated for 24 hrs by CCK-8 method
[4] = biological target: T1, Cyclic GMP-AMP synthase; assay: Inhibition of cGAS in mouse RAW-Lucia ISG cells preincubated for 1 hr followed by cGAMP addition and measured after 24 hrs by luminescence based QUANTI-Luc assay
[5] = biological target: T2, Cyclic GMP-AMP synthase; assay: Inhibition of cGAS in human THP1-Dual cells preincubated for 1 hr followed by cGAMP addition and measured after 24 hrs by luminescence based QUANTI-Luc assay
[6] = MRT last in rat at 3 mg/kg, po; settings: in vivo
[7] = MRT last in rat at 1 mg/kg, iv; settings: in vivo
[8] = in vivo; settings: rat, po, 3 mg/kg
Description: AUC last in rat at 3 mg/kg, po

[9] = in vivo; settings: rat, iv, 1 mg/kg
[10] = in vivo; settings: rat, po, 3 mg/kg; remark: listed apart in the source
Description: Cmax in rat at 3 mg/kg, po

[11] = Half life in rat at 1 mg/kg, iv; settings: in vivo
[12] = Half life in rat at 3 mg/kg, po; settings: in vivo
[13] = in vivo; settings: rat, iv, 1 mg/kg; remark: listed apart in the source
[14] = in vivo; settings: rat, po, 3 mg/kg; remark: listed apart in the source
Description: Oral bioavailability in rat at 3 mg/kg

[15] = in vivo; settings: rat, po, 3 mg/kg; remark: listed apart in the source
Description: Tmax in rat at 3 mg/kg, po

[16] = Volume of distribution at steady state in rat at 1 mg/kg, iv; settings: in vivo
[17] = biological target: T1, Cyclic GMP-AMP synthase; assay: Inhibition of mouse cGas incubated for 120 mins
[18] = biological target: T2, Cyclic GMP-AMP synthase; assay: Inhibition of human cGas incubated for 120 mins
[19] = biological target: T1, Cyclic GMP-AMP synthase
[20] = biological target: T2, Cyclic GMP-AMP synthase; assay: Inhibition of cGAS in dsDNA stimulated human THP-1 cells assessed as inhibition of IFNB1 mRNA level by qRT-PCR analysis
[21] = biological target: T2, Cyclic GMP-AMP synthase; assay: Binding affinity to human cGAS assessed as dissociation constant measured upto 240 secs by surface plasmon resonance assay
[22] = biological target: T2, Cyclic GMP-AMP synthase; assay: Inhibition of full length recombinant human cGAS expressed in Escherichia coli BL21 (DE3) incubated for 7 hrs by Kinase-glo max luminescent kinase assay
[23] = Cytotoxicity against mouse RAW-Lucia ISG cells incubated for 24 hrs by CCK-8 method

T1 sequence (Q8C6L5 whole entry): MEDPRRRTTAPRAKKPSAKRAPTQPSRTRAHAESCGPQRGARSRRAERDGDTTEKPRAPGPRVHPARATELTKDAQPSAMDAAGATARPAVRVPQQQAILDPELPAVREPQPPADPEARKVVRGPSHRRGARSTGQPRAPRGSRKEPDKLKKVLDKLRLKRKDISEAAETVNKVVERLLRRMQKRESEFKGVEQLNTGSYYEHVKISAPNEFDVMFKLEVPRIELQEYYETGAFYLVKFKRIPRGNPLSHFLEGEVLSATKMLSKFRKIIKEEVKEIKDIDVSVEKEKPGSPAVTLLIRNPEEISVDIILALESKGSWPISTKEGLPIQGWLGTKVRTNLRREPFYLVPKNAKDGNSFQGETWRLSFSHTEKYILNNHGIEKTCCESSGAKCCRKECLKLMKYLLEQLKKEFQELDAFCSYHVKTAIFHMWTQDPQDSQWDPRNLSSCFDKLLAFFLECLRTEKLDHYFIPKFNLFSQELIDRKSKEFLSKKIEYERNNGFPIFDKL

Row | Structure (SMILES) | CC50 [3] [µM] | pIC50 [5] | further results
1 | Nc1cc(-c2cc(Cl)c(Cl)c3[nH]c4c(c23)CC2(CC4)CCN(C(=O)CO)C2)ccn1 (stereo not given) | > 50 | 5.19 | pIC50 [1]: 5.33; pIC50 [2]: 5.19; pIC50 [4]: 5.33
2 | C[C@@H](O)C(=O)N1CCC2(CCc3[nH]c4c(Cl)c(Cl)cc(-c5ccnc(C(F)(F)F)c5)c4c3C2)C1 (stereo not given in full) | 39.1 | 4.75 | 
3 | CS(=O)(=O)CC(=O)N1CCC2(CCc3[nH]c4c(Cl)c(Cl)cc(-c5ccnc(C(F)(F)F)c5)c4c3C2)C1 (stereo not given) | 10.4 | 5.02 | 
4 | O=C(CO)N1CCC2(CCc3[nH]c4c(Cl)c(Cl)cc(-c5ccnc(C(F)(F)F)n5)c4c3C2)C1 (stereo not given) | 14.4 | 5.37 | 
5 | N#Cc1cc(-c2cc(Cl)c(Cl)c3[nH]c4c(c23)CC2(CC4)CCN(C(=O)CO)C2)ccn1 (stereo not given) | 10.3 | 5.20 | 
6 | C[C@H](O)[C@@H](N)C(=O)N1CCC2(CCc3[nH]c4c(Cl)c(Cl)cc(-c5ccnc(C(F)(F)F)c5)c4c3C2)C1 (stereo not given in full) | 30.3 | 4.96 | 
7 | Nc1ccc(-c2cc(Cl)c(Cl)c3[nH]c4c(c23)CC2(CC4)CCN(C(=O)CO)C2)cn1 (stereo not given) | 47.8 | 5.09 | pIC50 [2]: 5.09
8 | Cn1ccc(-c2cc(Cl)c(Cl)c3[nH]c4c(c23)CC2(CC4)CN(C(=O)CO)C2)n1 | 17.7 | 4.44 | 
9 | O=C(CO)N1CCC2(CCc3[nH]c4c(Cl)c(Cl)cc(-c5ccnc(C(F)(F)F)c5)c4c3C2)C1 (stereo not given) | 34 | 5.35 | MRT last [6]: 2.99 h; pIC50 [1]: 4.94; MRT last [7]: 3.59 h; pIC50 [2]: 5.35; AUC(0-t) [8]: 920 ng·h/mL; AUC(0-t) [9]: 1070 ng·h/mL; Cmax [10]: 223 ng/mL; half-life [11]: 3.36 h; half-life [12]: 1.82 h; clearance [13]: 15.5 mL/min/kg; pIC50 [4]: 4.94; bioavailability [14]: 30%; Tmax [15]: 0.667 h; Vd [16]: 4.48 L/kg
10 | Cn1nc(C(F)(F)F)cc1-c1cc(Cl)c(Cl)c2[nH]c3c(c12)CC1(CC3)CCN(C(=O)CO)C1 (stereo not given) | 17.3 | 5.24 | 
11 | Cn1ccc(-c2cc(Cl)c(Cl)c3[nH]c4c(c23)CC(NC(=O)CO)CC4)n1 (stereo not given) | > 50 | < 4.30 | 
12 | O=C(CO)N1CCC2(CCc3[nH]c4c(Cl)c(Cl)cc(-c5ccnc(C(F)F)c5)c4c3C2)C1 (stereo not given) | 10.6 | 5.19 | 
13 | Cn1ncc(-c2cc(Cl)c(Cl)c3[nH]c4c(c23)CC2(CC4)CCN(C(=O)CO)C2)n1 (stereo not given) | 26.3 | 4.98 | 
14 | O=C(CO)N1CCC2(CCc3[nH]c4c(Cl)c(Cl)cc(-c5cnn(C(F)F)c5)c4c3C2)C1 (stereo not given) | 37.7 | 5.24 | pIC50 [1]: 5.06; pIC50 [2]: 5.24; pIC50 [4]: 5.06
15 | Cn1cc(-c2cc(Cl)c(Cl)c3[nH]c4c(c23)CC2(CC4)CCN(C(=O)CO)C2)cn1 (stereo not given) | > 50 | 4.61 | 
16 | Cc1nn(-c2cc3ccc(Cl)c(Cl)c3[nH]2)c(O)c1C1OC(=O)c2ccccc21 (stereo not given) |  |  | pIC50 [17]: 5.53; pIC50 [18]: 6.96
17 | O=C(CO)N1CCC2(CCc3[nH]c4c(Cl)c(Cl)cc(-c5ccnc(F)c5)c4c3C2)C1 (stereo not given) | 13.6 | 5.20 | 
18 | C#CC(=O)N1CCn2cccc2C1c1ccccc1 (stereo not given) |  |  | pIC50 [19]: 6.01

Row | Structure (SMILES) | CC50 [3] [µM] | pIC50 [5] | further results
19 | C[C@H](O)C(=O)N1CCC2(CCc3[nH]c4c(Cl)c(Cl)cc(-c5ccnc(C(F)(F)F)c5)c4c3C2)C1 (stereo not given in full) | 12.7 | 4.41 | 
20 | O=C(CO)N1CCC2(CCc3[nH]c4c(Cl)c(Cl)cc(-c5cnn(C6CCNCC6)c5)c4c3C2)C1 (stereo not given) | > 50 | 4.89 | 
21 | O=C(CO)N1CCC2(CCc3[nH]c4c(Cl)c(Cl)cc(-c5ccc(C(F)(F)F)nc5)c4c3C2)C1 (stereo not given) | 31.7 | 5.06 | 
22 | O=C(CO)N1CCC2(CCc3[nH]c4c(Cl)c(Cl)cc(-c5cn[nH]c5)c4c3C2)C1 (stereo not given) | 13.7 | 5.23 | 
23 | O=C(CO)N1CCC2(CCc3[nH]c4c(Cl)c(Cl)cc(-c5cnc(C(F)(F)F)nc5)c4c3C2)C1 (stereo not given) | 34 | 5.12 | pIC50 [2]: 5.12
24 | C[C@H](N)C(=O)N1CCC2(CCc3[nH]c4c(Cl)c(Cl)cc(-c5ccnc(C(F)(F)F)c5)c4c3C2)C1 (stereo not given in full) | 16.4 | 5.37 | 
25 | Cn1ccc(-c2cc(Cl)c(Cl)c3[nH]c4c(c23)CN(C(=O)CO)CC4)n1 |  | 5.32 | MRT last [6]: 3.56 h; pIC50 [1]: 4.83 and 4.84; MRT last [7]: 1.5 h; AUC(0-t) [8]: 1520 ng·h/mL; AUC(0-t) [9]: 792 ng·h/mL; pIC50 [20]: 5.77; Cmax [10]: 375 ng/mL; half-life [11]: 1.03 h; half-life [12]: 1.31 h; clearance [13]: 20.7 mL/min/kg; pKd [21]: 7.28; pIC50 [4]: 4.84 and < 5.00; bioavailability [14]: 64.1%; pIC50 [22]: 7.29; Tmax [15]: 2.67 h; Vd [16]: 1.88 L/kg; CC50 [23]: 51.8 µM
26 | Cn1ccc(-c2cc(Cl)c(Cl)c3[nH]c4c(c23)CC2(CC4)CCN(C(=O)CO)CC2)n1 | > 50 | 4.89 | 
27 | NCC(=O)N1CCC2(CCc3[nH]c4c(Cl)c(Cl)cc(-c5ccnc(C(F)(F)F)c5)c4c3C2)C1 (stereo not given) | 11.1 | 5.47 | 
28 | Cn1ccc(-c2cc(Cl)c(Cl)c3[nH]c4c(c23)CC2(CCN(C(=O)CO)CC2)C4)n1 | > 50 | 4.43 | 
29 | C[C@@H](N)C(=O)N1CCC2(CCc3[nH]c4c(Cl)c(Cl)cc(-c5ccnc(C(F)(F)F)c5)c4c3C2)C1 (stereo not given in full) | 7.08 | 5.16 | 
30 | N#Cc1ncc(-c2cc(Cl)c(Cl)c3[nH]c4c(c23)CC2(CC4)CCN(C(=O)CO)C2)cc1F (stereo not given) | 33.1 | 5.11 | 
31 | CC(C)=C(C#N)C(=O)N1CCC2(CCc3[nH]c4c(Cl)c(Cl)cc(-c5ccnc(C(F)(F)F)c5)c4c3C2)C1 (stereo not given) | 45.1 | 5.07 | 
32 | Cn1ccc(-c2cc(Cl)c(Cl)c3c2[C@@H]2CN(C(=O)CO)CC[C@@H]2N3)n1 | > 50 | < 4.30 | 
33 | Cn1ccc(-c2cc(Cl)c(Cl)c3[nH]c4c(c23)CC2(CC4)CCN(C(=O)CO)C2)n1 (stereo not given) | > 50 | 5.12 | pIC50 [1]: 5.05; pIC50 [2]: 5.12; pIC50 [4]: 5.05
34 | O=C(CO)N1CCC2(CCc3[nH]c4c(Cl)c(Cl)cc(-c5ccc(F)nc5F)c4c3C2)C1 (stereo not given) | 33.4 | 5.15 | 
35 | O=C(CO)N1CCC2(CCc3[nH]c4c(Cl)c(Cl)cc(-c5ccnc(OC(F)F)c5)c4c3C2)C1 (stereo not given) | 13.2 | 5.19 | 
